Data: PMC7412073, “Pharmacokinetics and Metabolism of Liposome-Encapsulated 2,4,6-Trihydroxygeranylacetophenone in Rats Using High-Resolution Orbitrap Liquid Chromatography Mass Spectrometry” (Molecules, 2020)
Where two headings read alike, the source gives them in different places. Each block holds one compound with its values, some of them ahead of it.

How the values were obtained:
[1] = Metabolite identification in rat blood, urine and feces (UHPLC-MS/MS); format: in vivo, Sprague-Dawley rats; design: key: B, U and F represent blood, urine and feces samples, respectively; B, U and F represent blood, urine and feces samples, respectively; B, U and F represent blood, urine and feces samples, respectively; settings: rats dosed orally with 20 mg/kg liposomes-encapsulated tHGA, samples over 24 h
Protocol: Groups 4 to 6 were used for single-dose drug metabolism study. Each rat was kept in individual metabolic cages. Urine and faeces were collected from each rat in the tHGA-treated group 4 and control group 5 at four different times over a period of 24 h. The samples were stored at −80 °C until further analysis. For the determination of plasma metabolites, blood was sampled from each rat in the control group 6, according to the same procedure as in the pharmacokinetic study. Blood samples collected from the tHGA-treated group 2 in the pharmacokinetics study were also used for the metabolism study.
For the drug metabolism study, for each rat, plasma samples collected over a period of 24 h were combined and tHGA was similarly extracted from the samples. For the urine samples, for each rat, samples collected over the 24 h period were combined and centrifuged for 15 min at 14,000 rpm. The supernatant was then vacuum-evaporated at 40 °C to a volume of 5 mL, after which, 30 mL methanol was added, the mixture sonicated for 25 min, followed by centrifuging at 10,000 rpm for 15 min. The supernatant was again vacuum-concentrated at 40 °C, to a volume of 5 mL, filtered through 0.45 μm membrane filter into an LC-MS vial and then injected (10 µL) to UHPLC-MS/MS system for spectral acquisition.
[…] collected over 24 h was homogenized with distilled water in the ratio of 1 g to 3 mL and sonicated for 10 min. From this mixture, 3 mL was taken and mixed with 9 mL methanol. After that, the mixture was sonicated for 30 min and then centrifuged at 14,000 rpm for 15 min. The supernatant was taken to dryness using a rotary evaporator at 40 °C. The residue was then reconstituted in 1 mL ACN (80%), filtered through 0.45 μm membrane filter, and injected to the UHPLC-MS/MS system for acquisition of spectra.
For the identification of tHGA and its metabolites simultaneously, MS detection was operated under a heated electrospray ion source (H-ESI II) using positive/negative switching ionization mode to maximize metabolite coverage in every injection. The H-ESI parameters were optimized as follows: spray voltage (+) and (−) 4.2 and 3.5 kV respectively, capillary temperature 320 °C, S-lens RF level 55, sheath gas flow rate 45, auxiliary gas 10 and sweep gas 2 (manufacturer’s units). Nitrogen was used for the source, Orbitrap bath gas, and the higher energy collision dissociation (HCD) cell collision. The full-scan MS data were recorded across the mass range of 50–1500 m/z. The resolution was 70,000 (FWHM) at m/z 200, with automatic gain control (AGC) target of 1 × 10^6 ions and an auto maximum ion injection time (IT).
All MS data acquired using the Q Exactive MS were controlled by Xcalibur 4.0 software (Thermo Fisher Scientific). The MS data from plasma-, urine-, and feces-treated, as well as the control samples were analyzed using Compound Discoverer software 2.1 (Thermo Fisher Scientific) for the identification of tHGA metabolites. The software extracted information about metabolite m/z values depending on a list of expected metabolites. As no standards or literature information were available to confirm tHGA metabolites structure, tentative elucidation of the metabolites was performed according to Schymanski classification. A list of putative metabolites with the probable metabolism pathway was created for peaks based on MS, MS/MS fragmentation and the isotopic pattern of tHGA. The matching percentage between measured and theoretical MS/MS spectra was determined depending on the existence/absence of theoretical fragments in the MS/MS spectra generated experimentally. In addition, the site of metabolism was determined based on the tHGA structure with the help of a web server site for metabolism predictor [27, 28].

[2] = Short- and long-term stability of tHGA in rat plasma QC samples; format: in vitro ADME; settings: for Stability RE (%) Short-Term (4 °C): processed rat plasma sample, autosampler 4 °C, 24 h; for Stability RE (%) Short-Term (4 °C) / Stability RE (%) Long-Term (−80 °C): n = 6; for Stability RE (%) Long-Term (−80 °C): rat plasma, 1 month
Protocol: Short- and long-term stability studies of tHGA in plasma was assessed using six replicates at two concentration levels, LQC and HQC. The QC samples were analyzed against the standard curve which was freshly prepared. The short-term stability was evaluated by analyzing the processed QC samples kept in the autosampler (4 °C) for 24 h. For long-term stability, tHGA plasma samples in low and high concentrations were stored at −80 °C for 1 month.

[3] = Single-dose pharmacokinetic study of free and liposome-encapsulated tHGA in rats (plasma, LC-HRMS); format: in vivo, Sprague-Dawley rats; settings: for Fr (relative oral bioavailability): PO 20 mg/kg relative to IP 20 mg/kg tHGA-loaded liposomes, rats
Protocol: Thirty healthy male Sprague-Dawley (S.D.) rats, weighing between 180 and 225 g on the day of dosing, were kept in polypropylene cage base with stainless steel wire top clips for three days before the experiment. The living environment of the animals was controlled as follows: 12/12-h dark/light cycle, temperature maintained between 22 to 25 °C, daily feeding with commercial pellet food, and tap water. Rats were fasted 12 h before dosing and labeled with a designated number at the base of their tails. The rats were then randomly divided into six groups as follows: • Group 1 (n = 6) were dosed orally with 20 mg/kg of free tHGA. • Group 2 (n = 6) were dosed orally with 20 mg/kg of liposomes-encapsulated tHGA. • Group 3 (n = 6) were dosed intraperitoneally with 20 mg/kg of liposomes-encapsulated tHGA • Group 4 (n = 4) were dosed orally with 20 mg/kg of liposomes-encapsulated tHGA. • Group 5 (n = 4, control) were dosed orally with blank liposomes formulation (for urine and feces collection). • Group 6 (n = 4, control) were dosed orally with blank liposomes formulation (for blood collection).
Groups 1 to 3 were used for the single-dose pharmacokinetic study. An aliquot of 200 µL of blood was drawn from each rat via the tail vein into polypropylene tubes containing a disodium K2EDTA solution (10%) as an anticoagulant at the pre-specified time points; at 0.25, 0.5, 1.5, 2, 4, 8 and 24 h for groups 1 and 2 after PO dose, and at 0.08, 0.5, 1.5, 2, 4, 8 and 24 h for group 3 after IP dose. Blood samples were centrifuged at 14,000 rpm at 20 °C for 10 min to separate the plasma which was then stored under −80 °C until further analysis. Animals were allowed to feed two hours after the first sample time point.
For the pharmacokinetic study, the same procedure used in the preparation of the standard solutions was used to extract tHGA from plasma samples.
LC-MS analysis was performed using a Thermo Scientific™ Q Exactive™ Focus Hybrid Quadrupole-Orbitrap™ Mass Spectrometer (Thermo Fisher Scientific, Bremen, Germany) attached to a Thermo Scientific Dionex Ultimate 3000 Series RS pump coupled with a Thermo Scientific Dionex Ultimate 3000 Series TCC-3000RS column compartments and a Thermo Fisher Scientific Ultimate 3000 Series WPS-3000RS autosampler (Thermo Fisher Scientific, Sunnyvale, CA, USA) controlled by Xcalibur Software 4.0 (Thermo Fisher Scientific, Waltham, MA, USA). The chromatographic separation was carried out using a Hypersil GOLD C18 column (100 × 2.1 mm, 1.9 μm) (Thermo Fisher Scientific, Waltham, MA, USA) and the mobile phase consisted of water with 0.1% formic acid (solvent A) and acetonitrile with 0.1% formic acid (solvent B). Gradient elution was run at 0.3 mL/min, with 10% solvent B at the start (t = 0 min), increasing to 70% solvent B at t = 5 min. The gradient was then maintained for 3 min at 70% solvent B until t = 8 min before again increasing solvent B to 100% until the end of the run at t = 9.5 min. The temperature of the autosampler was set to 4 °C. For the metabolism study, the same chromatographic conditions were used with a different elution system. A linear gradient elution from 0% to 100% of solvent B for 45 min was used.
Mass spectrometric detection was operated under a heated electrospray ion source (H-ESI II) in negative ionization mode. The H-ESI parameters were optimized as follows: spray voltage 3.5 kV, capillary temperature 320 °C, S-lens RF level 55, sheath gas flow rate 45, auxiliary gas 10 and sweep gas 2 (manufacturer’s units). Nitrogen was used for the source, Orbitrap bath gas, and the higher energy collision dissociation (HCD) cell collision. A targeted SIM data-dependent MS/MS (tSIM/ddMS2) acquisition was used with an inclusion mass list containing m/z and retention time of tHGA. The resolution was 35,000 (FWHM) at m/z 200, with automatic gain control (AGC) target of 5 × 10^4 ions and an auto maximum ion injection time (IT). […]

[4] = PO, 20 mg/kg, male S.D rats, plasma, mean n = 6, listed as Free tHGA

- Source (sample in which the metabolite was detected) [1]: F, U
SMILES: CC(=O)c1c(O)cc(O)c(C/C=C(\C)CCC(O)=C(C)C)c1O [M2]

- Source (sample in which the metabolite was detected) [1]: F, U
SMILES: CC(=O)c1c(O)cc(O)c(C(O)/C=C(\C)CCC=C(C)C)c1O (stereo not drawn) [M3]

- Source (sample in which the metabolite was detected) [1]: F
SMILES: CC(=O)c1c(O)cc(O)c(C(O)/C=C(\C)CCC(O)=C(C)C)c1O (stereo not drawn) [M4]

- Source (sample in which the metabolite was detected) [1]: F
SMILES: CC(=O)c1c(O)cc(O)c(C/C=C(\C)CCCC(C)(C)O)c1O [M5]

- Source (sample in which the metabolite was detected) [1]: F, B
SMILES: CC(=O)c1c(O)cc(O)c(C(O)/C=C(C)/C=C/C(O)=C(C)C)c1O (stereo not drawn) [M6]

- Source (sample in which the metabolite was detected) [1]: F
SMILES: CC(=O)c1c(O)cc(O)c(C/C=C(C)/C=C/C=C(C)C)c1O [M7]

- Source (sample in which the metabolite was detected) [1]: B
SMILES: CC(=O)c1c(O)cc(OS(=O)(=O)O)c(C(O)/C=C(\C)CCC(O)=C(C)C)c1O (stereo not drawn) [M9]

- Source (sample in which the metabolite was detected) [1]: F
SMILES: CC(=O)c1c(O)cc(O)c(C/C=C(\C)CCC(O)C(C)(C)O)c1O (stereo not drawn) [M10]

- Stability RE (%) Short-Term (4 °C) ([2]; 1.5 ng/mL tHGA (LQC)): −4.66 ± 11.9%
- Stability RE (%) Long-Term (−80 °C) ([2]; 1.5 ng/mL tHGA (LQC)): 5.93 ± 2.8%
- Stability RE (%) Short-Term (4 °C) ([2]; 70 ng/mL tHGA (HQC)): 5.34 ± 6.9%
- Stability RE (%) Long-Term (−80 °C) ([2]; 70 ng/mL tHGA (HQC)): 5.34 ± 5.1%
- long-term stability, accuracy ([2]; LQC and HQC plasma samples, 1 month at −80 °C): 5.3–5.9%
- Fr (relative oral bioavailability) ([3]; listed as Free tHGA): 9.07%
- Fr (relative oral bioavailability) ([3]; listed as unformulated tHGA): 9.1%
- Cmax [3, 4]: 5.35 ng/mL
- t1/2 (elimination half-life) [3, 4]: 6.95 h
- Tmax ([3]; Sprague-Dawley, rat, PO, 20 mg/kg, male S.D rats, plasma, mean n = 6): 0.25 h
- AUC(0-t) ([3]; male, Sprague-Dawley, rat, plasma, 20 mg/kg, oral administration, rats (unit as printed in abstract), read-out: AUC0–24): 17.6 ng·h/mL
- Cmax ([3]; male, Sprague-Dawley, rat, plasma, po, 20 mg/kg, PO, male S.D rats, plasma, mean n = 6, read-out: Cmax): 5.4 ng/mL
- half-life ([3]; male, Sprague-Dawley, rat, plasma, po, 20 mg/kg, PO, male S.D rats, plasma, mean n = 6, read-out: t1/2 (elimination half-life) (converted)): 6.9 h
SMILES: CC(=O)c1c(O)cc(O)c(C/C=C(\C)CCC=C(C)C)c1O [tHGA, 2,4,6-trihydroxy-3-geranylacetophenone]
